The results in this text go back to patent US20070275961A1, “Triazolo ' 1, 5-A ! Pyrimidines and Their Use in Medicine” (VERNALIS (CAMBRIDGE) LIMITED., priority 2003, published 2007).

Holding throughout (assay type): biochemical
The target of experiment [1] is T1, Chk1 (Homo sapiens, UniProt O14757).
T1 sequence (O14757 1-476): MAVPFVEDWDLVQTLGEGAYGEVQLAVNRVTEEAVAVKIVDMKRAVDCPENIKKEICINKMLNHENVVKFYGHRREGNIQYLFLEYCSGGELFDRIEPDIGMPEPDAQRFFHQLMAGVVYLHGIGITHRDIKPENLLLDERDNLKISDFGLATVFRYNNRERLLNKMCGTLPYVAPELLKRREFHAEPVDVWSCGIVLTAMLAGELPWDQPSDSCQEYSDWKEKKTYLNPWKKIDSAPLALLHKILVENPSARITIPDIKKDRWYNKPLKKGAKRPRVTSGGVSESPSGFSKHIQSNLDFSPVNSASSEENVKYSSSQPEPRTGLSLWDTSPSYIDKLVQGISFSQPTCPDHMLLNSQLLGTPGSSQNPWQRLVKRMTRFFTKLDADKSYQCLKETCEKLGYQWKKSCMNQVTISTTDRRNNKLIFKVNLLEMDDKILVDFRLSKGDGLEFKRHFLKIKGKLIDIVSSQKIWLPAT
The experiment can be described thus: Chk1 kinase assay, phosphorylation of Chktide (33P-ATP filtration). To be noted: 0.01 mM ATP, read-out: Chk1 IC50. How it is done: Assays for the Chk1 kinase activity were carried out by monitoring the phosphorylation of a synthetic peptide Chktide with the amino acid sequence, […]. The assay mixture containing the inhibitor and Chk1 enzyme was mixed together in a microtiter plate in a final volume of 50 μl and incubated for 40 minutes at 30° C.
The assay mixture contained 0.01 mM unlabeled ATP, 0.5 μCi ^33P-γ-ATP, 30 μM Chktide, 0.1 mg/ml BSA, 50 mM Hepes-NaOH pH 7.5 and 11 nM GST-Chk1 enzyme. The reaction was stopped by adding 50 μl of 50 mM phosphoric acid. 90 μl of the mixture was transferred to a pre-wetted 96-well Multiscreen MAPHNOB filtration plate (Millipore) and filtered on a vacuum manifold. The filter plate was washed with three successive additions of 200 μl 50 mM phosphoric acid and then with 100 μl methanol. The filtration plate was dried for 10 min at 65° C., scintillant added and phosphorylated peptide quantified in a scintillation counter (Trilux, PerkinElmer).

Experiment [2] addresses CDK2 enzyme, complexed with cyclin A (Homo sapiens, UniProt P24941). The experiment can be described thus: CDK2 cyclin dependent kinase assay, phosphorylation of synthetic peptide […] (33P-ATP filtration). To be noted: 0.1 mM ATP. How it is done:
(§1) The assay mixture containing the inhibitor and CDK2 enzyme, complexed with cyclin A (0.4 U/ml) was mixed together in a microtiter plate in a final volume of 50 μl and incubated for 40 min at 30° C. The assay mixture contained 0.1 mM unlabeled ATP, 0.01 μCi/μl ^33P-γ-ATP, 0.03 mM peptide, 0.1 mg/ml BSA, 7.5 mM magnesium acetate, 50 mM HEPES-NaOH, pH 7.5. The reaction was stopped by adding 50 μl of 50 mM phosphoric acid. 90 μl of the mixture were transferred to a pre-wetted 96-well Multiscreen MAPHNOB filtration plate (Millipore) and filtered on a vacuum manifold. The filter plate was washed with three successive additions of 200 μl 50 mM phosphoric acid and then with 100 μl methanol. The filtration plate was dried for 10 min at 65° C., scintillant added and phosphorylated peptide quantified in a scintillation counter (Trilux, PerkinElmer).
HEPES is N-[2-hydroxyethyl]piperazine-N′-[2-ethanesulfonic acid]. BSA is bovine serum albumin.

In experiment [3] the target is T2, PDK1 enzyme (Homo sapiens, UniProt O15530).
T2 sequence (O15530 1-556): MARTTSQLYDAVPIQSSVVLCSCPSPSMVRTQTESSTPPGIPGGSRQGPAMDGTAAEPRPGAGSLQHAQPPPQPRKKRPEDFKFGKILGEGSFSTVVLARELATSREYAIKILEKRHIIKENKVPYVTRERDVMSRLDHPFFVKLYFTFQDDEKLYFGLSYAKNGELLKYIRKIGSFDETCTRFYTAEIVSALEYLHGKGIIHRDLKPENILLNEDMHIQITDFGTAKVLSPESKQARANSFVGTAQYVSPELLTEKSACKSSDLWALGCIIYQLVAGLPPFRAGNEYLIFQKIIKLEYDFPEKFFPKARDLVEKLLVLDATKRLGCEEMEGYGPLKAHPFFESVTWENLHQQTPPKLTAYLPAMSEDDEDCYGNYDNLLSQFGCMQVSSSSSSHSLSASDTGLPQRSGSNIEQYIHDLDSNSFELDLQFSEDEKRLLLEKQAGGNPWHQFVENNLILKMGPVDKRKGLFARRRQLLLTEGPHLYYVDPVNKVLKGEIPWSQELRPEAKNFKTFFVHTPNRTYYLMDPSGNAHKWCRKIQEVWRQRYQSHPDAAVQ
The experiment in a line: PDK1 3'-phosphoinositide-dependent kinase assay, phosphorylation of synthetic peptide (33P-ATP filtration). The conditions noted are these: 0.01 mM ATP, read-out: PDK1 IC50. How it is done: as §1, with “and PDK1 enzyme” for “and CDK2 enzyme, complexed with cyclin A (0.4 U/ml)”, “for 60” for “for 40”, “contained 0.01” for “contained 0.1”, “^33P-γ-ATP, 0.075” for “^33P-γ-ATP, 0.03”, “acetate, 0.05 M Tris.HCl,” for “acetate, 50 mM HEPES-NaOH,”, “pH 7.5, 0.5% 2-mercaptoethanol.” for “pH 7.5.”

Read-outs that look alike come from different tables or passages of the source.

With `NCCOc1cccc(-c2cc(Nc3ccc(C(N)=O)cc3)nc3ncnn23)c1` [Example 151], the concentration for half-maximal inhibition (IC50) was determined as 3 µM in experiment [1] (Table 4), 47.5 µM in experiment [2] (Table 4) and 0.25 µM in experiment [3] (Table 4).

On to `Cc1cccc(-c2cc(Nc3ccc(N4CCOCC4)cc3)nc3ncnn23)c1` [Example 106], for which the half-inhibitory concentration (IC50) in experiment [1] (Table 3) is 63.3 µM; in experiment [2] (Table 3) it was more than 200 µM; in experiment [3] (Table 3), 23.2 µM.

In the case of `CCN(CC)CCNC(=O)c1ccc(Nc2cc(-c3ccc4c(c3)OCO4)n3ncnc3n2)cc1` [Example 140], the concentration for half-maximal inhibition (IC50) in experiment [1] (Table 3) is 1 µM; in experiment [2] (Table 3), more than 200 µM; in experiment [3] (Table 3), 1.8 µM.

Regarding `NS(=O)(=O)c1ccc(CNc2cc(Cl)nc3ncnn23)cc1` [Example 38], the half-inhibitory concentration (IC50) in experiment [1] (Table 1) was more than 200 µM; in experiment [2] (Table 1) it was 15 µM; in experiment [3] (Table 1) it was more than 200 µM.

On to `CS(=O)(=O)c1ccc(Nc2cc(NC3C4CC5CC(C4)CC3C5)nc3ncnn23)cc1` (stereo not drawn) [Example 102], for which the IC50 in experiment [1] (Table 2) was 59.4 µM; in experiment [2] (Table 2) it was 10.9 µM; in experiment [3] (Table 2) it was 3.55 µM.

For the molecule `N#Cc1ccc(Nc2cc(Cl)nc3ncnn23)cc1` [Example 41], the IC50 in experiment [1] (Table 1) was more than 200 µM; in experiment [2] (Table 1), 61.4 µM; in experiment [3] (Table 1) it was more than 200 µM.

For the molecule `Cc1ccc(-c2cc(Nc3ccc(C(N)=O)cc3)nc3ncnn23)cc1` [Example 138], the IC50 in experiment [1] (Table 3) is 26.1 µM; in experiment [2] (Table 3) it was more than 200 µM; in experiment [3] (Table 3), 4.21 µM.

For `CS(=O)(=O)c1ccc(Nc2cc(NC3CC3)nc3ncnn23)cc1` [Example 101], the 50% inhibitory concentration (IC50) is more than 200 µM in experiment [1] (Table 2), 15.1 µM in experiment [2] (Table 2) and more than 200 µM in experiment [3] (Table 2).

In the case of `Clc1cc(Nc2ccccc2)n2ncnc2n1` [Example 75], the concentration for half-maximal inhibition (IC50) in experiment [1] (Table 2) is more than 200 µM; in experiment [2] (Table 2), 62.8 µM; in experiment [3] (Table 2) it was more than 200 µM.

As for `CS(=O)(=O)c1ccc(Nc2cc(NC3CCCC3)nc3ncnn23)cc1` [Example 96], the IC50 in experiment [1] (Table 2) was more than 200 µM; in experiment [2] (Table 2) it was 2.23 µM; in experiment [3] (Table 2) it was more than 200 µM.

With `CCN(CC)c1cc(Nc2ccc(S(=O)(=O)N3CCC(O)CC3)cc2)n2ncnc2n1` [Example 72], the half-maximal inhibitory concentration (IC50) in experiment [1] (Table 2) is more than 200 µM; in experiment [2] (Table 2), 0.38 µM; in experiment [3] (Table 2) it was more than 200 µM.

Take `CC(C)N(CCO)c1cc(Nc2ccc(S(C)(=O)=O)cc2)n2ncnc2n1` [Example 87]: the 50% inhibitory concentration (IC50) in experiment [1] (Table 2) was more than 200 µM; in experiment [2] (Table 2), 1.49 µM; in experiment [3] (Table 2), more than 200 µM.

Consider `O=S(=O)(c1ccc(Nc2cc(Cl)nc3ncnn23)cc1)N1CCC(O)CC1` [Example 7], for which the values for the IC50 in experiment [1] (Table 1), in experiment [2] (Table 1) and in experiment [3] (Table 1) were more than 200 µM, 22.7 µM and more than 200 µM, respectively.

For `CCN(CC)CCNC(=O)c1ccc(Nc2cc(-c3cccc(C)c3)n3ncnc3n2)cc1` [Example 105], the IC50 in experiment [1] (Table 3) was 5.45 µM; in experiment [2] (Table 3), more than 200 µM; in experiment [3] (Table 3), 6.1 µM.

For `CC(C)Nc1cc(Nc2ccc(S(N)(=O)=O)cc2)n2ncnc2n1` [Example 9], the 50% inhibitory concentration (IC50) in experiment [1] (Table 1) is more than 200 µM; in experiment [2] (Table 1), 0.89 µM; in experiment [3] (Table 1), more than 200 µM.

Regarding `CN(C)c1ccc(Nc2cc(Cl)nc3ncnn23)cc1` [Example 21], the half-maximal inhibitory concentration (IC50) in experiment [1] (Table 1) is more than 200 µM; in experiment [2] (Table 1), 59 µM; in experiment [3] (Table 1), more than 200 µM.

`O=S(=O)(c1ccc(Nc2cc(Cl)nc3ncnn23)cc1)C(F)(F)F` [Example 64]: the concentration for half-maximal inhibition (IC50) in experiment [1] (Table 2) is more than 200 µM; in experiment [2] (Table 2), 155 µM; in experiment [3] (Table 2), more than 200 µM.

For the molecule `Clc1cccc(-c2cc(Nc3ccc4c(c3)OCO4)n3ncnc3n2)c1` [Example 33], the values for the concentration for half-maximal inhibition (IC50) in experiment [1] (Table 1), in experiment [2] (Table 1) and in experiment [3] (Table 1) were 23.9 µM, 29 µM and more than 200 µM, respectively.

Turning to `NC(=O)COc1cccc(-c2cc(Nc3ccc(C(N)=O)cc3)nc3ncnn23)c1` [Example 157], the figures for the half-maximal inhibitory concentration (IC50) in experiment [1] (Table 4), in experiment [2] (Table 4) and in experiment [3] (Table 4) were 6.05 µM, 6.56 µM and 4.82 µM, respectively.

For `CCNc1cc(Nc2ccc(S(C)(=O)=O)cc2)n2ncnc2n1` [Example 80], the half-inhibitory concentration (IC50) is more than 200 µM in experiment [1] (Table 2), 13.5 µM in experiment [2] (Table 2) and more than 200 µM in experiment [3] (Table 2).

Consider `CCN(CC)CCNC(=O)c1ccc(Nc2cc(C)n3ncnc3n2)cc1` [Example 120], for which the figures for the concentration for half-maximal inhibition (IC50) in experiment [1] (Table 3), in experiment [2] (Table 3) and in experiment [3] (Table 3) were 0.82 µM, more than 200 µM and more than 200 µM, respectively.

As to `CCN(CC)CCNC(=O)c1ccc(Nc2cc(C(C)C)n3ncnc3n2)cc1` [Example 122], the figures for the concentration for half-maximal inhibition (IC50) in experiment [1] (Table 3), in experiment [2] (Table 3) and in experiment [3] (Table 3) were 22.9 µM, more than 200 µM and more than 200 µM, respectively.

With `Cc1cccc(-c2cc(Nc3ccc(C#N)cc3)n3ncnc3n2)c1` [Example 29], the 50% inhibitory concentration (IC50) was more than 200 µM in experiment [1] (Table 1), 57.5 µM in experiment [2] (Table 1) and more than 200 µM in experiment [3] (Table 1).

Take `CC[C@H](CO)Nc1cc(NCc2ccccc2)n2ncnc2n1` [Example 79]: the figures for the IC50 in experiment [1] (Table 2), in experiment [2] (Table 2) and in experiment [3] (Table 2) were more than 200 µM, 5.05 µM and more than 200 µM, respectively.

For the molecule `NS(=O)(=O)c1ccc(Nc2cc(N3CCCC3)nc3ncnn23)cc1` [Example 20], the concentration for half-maximal inhibition (IC50) was more than 200 µM in experiment [1] (Table 1), 3.33 µM in experiment [2] (Table 1) and more than 200 µM in experiment [3] (Table 1).

Turning to `N#Cc1ccc(Nc2cc(-c3cccc(F)c3)n3ncnc3n2)cc1` [Example 112], the IC50 in experiment [1] (Table 3) is more than 200 µM; in experiment [2] (Table 3), 119 µM; in experiment [3] (Table 3), 51.6 µM.

For `N[C@H]1CC[C@H](Nc2cc(Nc3ccc(S(=O)(=O)c4ccccc4)cc3)n3ncnc3n2)CC1` [Example 98], the IC50 in experiment [1] (Table 2) was 2.19 µM; in experiment [2] (Table 2), 0.26 µM; in experiment [3] (Table 2), 14.2 µM.

Turning to `Oc1ccccc1-c1cc(Nc2ccc3cn[nH]c3c2)n2ncnc2n1` [Example 60], the concentration for half-maximal inhibition (IC50) in experiment [1] (Table 2) was more than 200 µM; in experiment [2] (Table 2), 1.91 µM; in experiment [3] (Table 2), more than 200 µM.

`Cc1cccc(-c2cc(Nc3ccc(CCO)cc3)nc3ncnn23)c1` [Example 107]: the IC50 in experiment [1] (Table 3) was 42.2 µM; in experiment [2] (Table 3) it was more than 200 µM; in experiment [3] (Table 3) it was 14.7 µM.

For `CS(=O)(=O)c1ccc(CNc2cc(N[C@H]3CC[C@H](N)CC3)nc3ncnn23)cc1` [Example 100], the 50% inhibitory concentration (IC50) in experiment [1] (Table 2) was more than 200 µM; in experiment [2] (Table 2), 2.95 µM; in experiment [3] (Table 2) it was more than 200 µM.
